From patent US10365275B2, “Immunologically active polypeptide” (Institute of Arthritis Research, LLC, priority 2013, dated 2019)

Legend:
Format in all cases: cell-based
E. coli = E. coli growth (CFU) with human peripheral blood leukocytes; settings: E. coli with WBCs with PeptideX2, 10 hours
Description: Human peripheral blood leukocytes (WBCs) were obtained from healthy donors with informed consent. Three test groups were inoculated with E. coli and incubated for 10 hours. The three groups were E. coli with serum alone, E. coli with WBCs, and E. coli with WBCs with PeptideX2. Samples were taken at 0, 2, 4, 6 and 10 hours and plated for colony forming units (CFUs). […] In a separate but similar experiment, nine test groups (E. coli with serum alone, E. coli with WBCs, and E. coli with WBCs with PeptideX2 at each of seven indicated concentrations, see FIG. 12) were incubated over a time course of three hours, with quantification of bacterial CFU performed at times 0, 1.5 and 3 hours (FIG. 12).

peripheral blood cells = assay: Cytokine production by human peripheral blood cells (MSD panel)
Description: In order to examine the biological activity of IgX, cytokine production from human peripheral whole blood samples incubated with IgX was measured. Peripheral whole blood samples from three different donors (#66, 67, and 85) were obtained with appropriate informed consent and incubated with concentrations of IgX ranging from 0 to 200 ug/ml.
Protein A purified IgX was prepared from placental sample BC, brought to 0.05 M phosphate, 0.15 M NaCl buffer, pH 7.4, treated with an endotoxin affinity column (ActiClean Etox™ from Sterogene, Carlsbad, Calif.) according to the supplier's instructions, and then sent to IBT Bioservices (Gaithersburg, Md.) for human peripheral blood testing. […] All peripheral blood cells were suspended in RPMI-1640 media. Various concentrations of IgX were incubated with peripheral blood cells from donor D66 for 18 hours, and then the samples were stimulated with 1 ug/ml of PHA, 50 ng/ml of LPS, or 10 ng/ml of IFNγ (200 U/ml) for four hours. Samples of culture supernatant fluids were tested in duplicate for the presence of IL-2, IL-4, IL-6, IL-10, IL-12, and TNFα using a Meso Scale Discovery (MSD, Gaithersburg, Md.) panel.
PeptideX1 and PeptideX2 were incubated with peripheral blood cells from donor D67 as described above and tested in duplicate for IL-6 activity. […]

Staphylococcus aureus = assay: S. aureus growth (CFU) with human peripheral blood white cells
Description: (§1) Staphylococcus aureus bacteria were incubated with human peripheral blood white cells (WBC) in the absence or presence of PeptideX2 (0, 10, and 100 μg/ml), and the effects on S. aureus growth were assessed by serial dilutions, microbiological plating and determination by counting colony forming units (CFU) in culture samples withdrawn after incubation times of 0, 1.5 and 3 hours. The WBC-to-Staph ratio was 100:1, using WBC at 4×10^6/ml and Staph 4×10^4 CFU/ml.

murine TLR2 = target: T1, murine TLR2 (Mus musculus, UniProt Q9QUN7); assay: NF-κB-driven SEAP reporter assay in TLR-transfected HEK293 cells; settings: PeptideX2 200 μg/mL
T1 construct: host or cells: HEK293
T1 sequence (Q9QUN7 25-784): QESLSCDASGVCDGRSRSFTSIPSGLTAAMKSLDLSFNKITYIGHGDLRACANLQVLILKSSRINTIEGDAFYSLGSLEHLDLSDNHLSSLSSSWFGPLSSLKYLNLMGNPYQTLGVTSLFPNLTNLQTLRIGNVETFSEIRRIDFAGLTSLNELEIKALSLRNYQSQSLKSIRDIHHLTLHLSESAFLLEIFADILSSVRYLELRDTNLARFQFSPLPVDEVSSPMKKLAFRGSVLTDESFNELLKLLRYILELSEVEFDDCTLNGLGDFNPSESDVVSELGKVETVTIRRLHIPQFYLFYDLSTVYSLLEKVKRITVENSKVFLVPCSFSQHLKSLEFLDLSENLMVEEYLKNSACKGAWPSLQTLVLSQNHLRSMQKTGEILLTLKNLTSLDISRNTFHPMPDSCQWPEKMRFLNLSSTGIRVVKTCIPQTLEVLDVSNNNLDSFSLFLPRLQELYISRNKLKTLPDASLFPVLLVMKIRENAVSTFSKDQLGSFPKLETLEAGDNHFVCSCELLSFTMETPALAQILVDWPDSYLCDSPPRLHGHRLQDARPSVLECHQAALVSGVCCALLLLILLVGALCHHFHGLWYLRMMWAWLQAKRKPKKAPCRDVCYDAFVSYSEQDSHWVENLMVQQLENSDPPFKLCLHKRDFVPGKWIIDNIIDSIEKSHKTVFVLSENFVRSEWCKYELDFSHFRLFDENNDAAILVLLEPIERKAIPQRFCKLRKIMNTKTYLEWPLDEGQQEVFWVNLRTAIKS
Description: (§2) PeptideX2 (200 μg/mL) was tested for its effects on human TLR-driven NF-κB activation in HEK293 cell lines transfected with human TLR2, 3, 4, 5, 7, 8 or 9 (InvivoGen, San Diego, Calif.). HEK293 cells (50,000 to 75,000 cells/well) expressing the indicated TLR were plated in wells of a 96-well plate (200 μl total volume) containing either with no additions, PeptideX2 (in 20 μl buffer), or buffer only (20 μl) as a vehicle control. All cells contained a reporter construct having coding sequence for Secreted Embryonic Alkaline Phosphatase (SEAP) under the control of a promoter inducible by the transcription of NF-κB, and were incubated in media containing a detectable SEAP expression indicator (InvivoGen, San Diego, Calif.). After 16-20 hours incubation at 37° C., the optical density of culture supernatants was read at 650 nm on a Molecular Devices SpectraMax™ 340PC absorbance detector.
(§3) PeptideX2 (200 μg/mL) was also tested for its effects on murine TLR-driven NE-κB activation in HEK293 cell lines transfected with murine TLR2, 3, 4, 5, 7, 8 or 9 (InvivoGen, San Diego, Calif.) essentially as described above.

[1] = tested on: murine TLR3, 5, 7, 8 or 9; assay: as above; settings: PeptideX2 200 μg/mL
Description: as §2, §3

murine TLR4 = target: T2, murine TLR4 (Mus musculus, UniProt Q9QUK6); assay: as above; settings: PeptideX2 200 μg/mL
T2 construct: host or cells: HEK293
T2 sequence (Q9QUK6 26-835): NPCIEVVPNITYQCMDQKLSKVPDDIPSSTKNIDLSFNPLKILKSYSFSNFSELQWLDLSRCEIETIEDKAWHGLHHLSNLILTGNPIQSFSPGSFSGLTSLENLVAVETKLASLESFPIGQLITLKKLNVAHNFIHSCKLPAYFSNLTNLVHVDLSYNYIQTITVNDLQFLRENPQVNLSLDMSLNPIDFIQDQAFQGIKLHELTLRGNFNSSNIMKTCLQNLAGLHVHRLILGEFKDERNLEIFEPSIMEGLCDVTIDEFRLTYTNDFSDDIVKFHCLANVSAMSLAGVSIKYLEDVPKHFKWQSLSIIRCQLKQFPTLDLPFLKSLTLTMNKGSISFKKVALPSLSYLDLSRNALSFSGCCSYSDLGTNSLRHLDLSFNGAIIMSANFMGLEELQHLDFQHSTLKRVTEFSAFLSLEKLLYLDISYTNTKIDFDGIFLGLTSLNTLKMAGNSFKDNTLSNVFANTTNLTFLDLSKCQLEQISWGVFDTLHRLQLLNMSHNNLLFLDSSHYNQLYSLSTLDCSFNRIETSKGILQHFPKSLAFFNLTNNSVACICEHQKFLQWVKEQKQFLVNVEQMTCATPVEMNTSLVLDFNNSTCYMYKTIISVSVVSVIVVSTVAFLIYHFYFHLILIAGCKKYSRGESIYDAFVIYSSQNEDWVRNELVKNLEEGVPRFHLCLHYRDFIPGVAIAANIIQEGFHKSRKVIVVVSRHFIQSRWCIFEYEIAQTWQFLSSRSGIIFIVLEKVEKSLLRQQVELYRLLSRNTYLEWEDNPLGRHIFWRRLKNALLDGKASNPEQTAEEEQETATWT
T2 sequence (Q9JHF9 19-160 partner): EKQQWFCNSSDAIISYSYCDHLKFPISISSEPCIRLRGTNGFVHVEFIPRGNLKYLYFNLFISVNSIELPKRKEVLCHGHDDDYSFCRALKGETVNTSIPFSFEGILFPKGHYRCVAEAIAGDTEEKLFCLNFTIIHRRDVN
Description: as §2, §3

[2] = tested on: human peripheral blood white cells (WBC); assay: TNFα production by WBC during short-term incubation with S. aureus (ELISA); settings: for TNFα concentration: 3-hour culture
Description: as §1, with “CFU/ml. Supernatant fluids from the same experimental cultures were also tested for TNFα production by WBC during the short-term incubations with S. aureus. […] In this three-hour timeframe, however, the presence of PeptideX2 at these concentrations had no effect on WBC bacteriocidal activity against S. aureus.” for “CFU/ml.”

human TLR4 = target: T3, human TLR4 (Homo sapiens, UniProt O00206); assay: NF-κB-driven SEAP reporter assay in TLR-transfected HEK293 cells; settings: PeptideX2 200 μg/mL, 16-20 hours
T3 construct: host or cells: HEK293
T3 sequence (O00206 24-839): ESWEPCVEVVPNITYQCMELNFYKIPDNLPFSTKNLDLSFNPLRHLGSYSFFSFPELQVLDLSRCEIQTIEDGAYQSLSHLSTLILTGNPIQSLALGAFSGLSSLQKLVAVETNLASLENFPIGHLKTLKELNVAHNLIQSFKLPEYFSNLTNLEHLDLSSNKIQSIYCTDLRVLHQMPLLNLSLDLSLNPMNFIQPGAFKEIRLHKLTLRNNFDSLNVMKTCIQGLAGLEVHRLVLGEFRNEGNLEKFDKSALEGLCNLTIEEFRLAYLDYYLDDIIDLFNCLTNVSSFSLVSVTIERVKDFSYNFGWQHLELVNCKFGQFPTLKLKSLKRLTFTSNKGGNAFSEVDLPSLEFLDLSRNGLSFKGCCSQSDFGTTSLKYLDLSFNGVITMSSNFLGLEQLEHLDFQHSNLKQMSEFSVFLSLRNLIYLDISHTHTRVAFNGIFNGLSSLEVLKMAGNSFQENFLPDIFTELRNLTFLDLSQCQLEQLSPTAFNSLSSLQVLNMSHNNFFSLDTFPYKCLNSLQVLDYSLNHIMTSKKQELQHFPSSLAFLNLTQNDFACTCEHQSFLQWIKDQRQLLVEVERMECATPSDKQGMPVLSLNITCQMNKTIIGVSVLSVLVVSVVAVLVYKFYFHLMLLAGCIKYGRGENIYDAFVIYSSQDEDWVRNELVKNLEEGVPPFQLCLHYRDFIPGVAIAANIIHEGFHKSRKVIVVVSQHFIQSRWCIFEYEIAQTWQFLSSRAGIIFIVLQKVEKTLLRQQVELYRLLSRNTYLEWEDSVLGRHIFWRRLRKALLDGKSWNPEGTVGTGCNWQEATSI
T3 sequence (Q9Y6Y9 17-160 partner limits assumed): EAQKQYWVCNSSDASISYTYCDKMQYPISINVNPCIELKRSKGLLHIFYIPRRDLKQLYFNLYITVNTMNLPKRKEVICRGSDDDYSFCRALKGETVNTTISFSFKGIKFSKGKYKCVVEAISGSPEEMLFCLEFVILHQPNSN
Description: as §2
(§4) The relative potency of PeptideX2 induction of human TLR-mediated NF-κB activation was compared to the effects of known PAMP ligands that have activity as agonists for each of the human TLRs TLR2, TLR3, TLR4, TLR5, TLR7, TLR8 and TLR9, using the NF-κB-driven SEAP reporter assay (InvivoGen, San Diego, Calif.). The known TLR agonists were as follows: for TLR2, heat killed Listeria monocytogenes (HKLM) at 10^8 cells/ml; for TLR3, poly(I:C) at 1 ug/ml; for TLR4, E. coli K12 LPS at 100 ng/ml; for TLR5, S. typhimurium flagellin at 100 ng/ml; for TLR7, CL097 at 1 ug/ml; for TLR8, CL075 at 1 ug/ml; for TLR9, CpG ODN 2006 at 100 ng/ml.

human TLR2 = target: T4, human TLR2 (Homo sapiens, UniProt O60603); assay: as above
T4 construct: host or cells: HEK293
T4 sequence (O60603 21-784): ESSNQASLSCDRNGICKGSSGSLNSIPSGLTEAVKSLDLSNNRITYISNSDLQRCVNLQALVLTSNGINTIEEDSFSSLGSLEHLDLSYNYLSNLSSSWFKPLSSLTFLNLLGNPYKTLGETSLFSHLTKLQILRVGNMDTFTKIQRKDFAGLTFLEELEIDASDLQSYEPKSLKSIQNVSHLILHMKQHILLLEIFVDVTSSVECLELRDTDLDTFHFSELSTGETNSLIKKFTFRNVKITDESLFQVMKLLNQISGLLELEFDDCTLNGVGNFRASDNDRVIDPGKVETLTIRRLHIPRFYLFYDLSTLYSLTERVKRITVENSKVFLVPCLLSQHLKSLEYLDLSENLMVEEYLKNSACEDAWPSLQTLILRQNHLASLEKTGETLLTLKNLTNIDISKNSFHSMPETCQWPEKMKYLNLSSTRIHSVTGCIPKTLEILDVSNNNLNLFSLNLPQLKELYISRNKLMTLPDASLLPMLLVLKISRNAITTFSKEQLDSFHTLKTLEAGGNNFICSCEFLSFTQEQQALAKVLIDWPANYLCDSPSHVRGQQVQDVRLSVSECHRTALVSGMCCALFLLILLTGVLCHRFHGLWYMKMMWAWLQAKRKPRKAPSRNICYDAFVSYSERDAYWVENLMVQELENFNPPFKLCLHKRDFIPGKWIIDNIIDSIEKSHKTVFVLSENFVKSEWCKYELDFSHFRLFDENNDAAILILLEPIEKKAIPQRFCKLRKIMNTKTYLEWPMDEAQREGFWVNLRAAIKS
Description: as §2, §4

KSIAYLQMNSLK (Peptide fragment) [PeptideX2, dodecapeptide derived from the heavy chain hypervariable region of IgX, residues 97-108 of AAH90938.1]
E. coli CFUs (E. coli): rapid rise in CFUs | IL-6 production (peripheral blood cells; cells from donor #67, compared to peptideX1): significantly greater IL-6 production compared to peptideX1 | IL-6 production (peripheral blood cells; cells from donor #85, PeptideX2 0, 10, 100 or 200 ug/ml): enhanced production | effect on WBC bacteriocidal activity against S. aureus (Staphylococcus aureus; PeptideX2 10 and 100 ug/ml, three-hour timeframe): no effect | S. aureus growth (Staphylococcus aureus; WBC present, up to three hours, presence or absence of PeptideX2 (0, 10, 100 μg/ml)): no S. aureus growth was detected | NF-κB-driven SEAP expression through murine TLR2 (murine TLR2): induction | NF-κB-driven SEAP expression through the other murine TLRs tested [1]: not through the other TLRs tested | NF-κB-driven SEAP expression through murine TLR4 (murine TLR4): induction | potency via murine TLR4 relative to murine TLR2 (murine TLR4): greater potency in activating via murine TLR4 relative to murine TLR2 | reduction in TNFα production ([2]; 100 ug/ml PeptideX2, 3-hour timepoint): 65% | TNFα concentration ([2]; WBC plus PeptideX2 at 10 ug/ml): 160 pg/mL | TNFα concentration ([2]; WBC plus PeptideX2 at 100 ug/ml): 76 pg/mL | TNFα concentration ([2]; serum plus PeptideX2 at 100 ug/ml (no WBC)): 0.05 pg/mL | reduction in TNFα production ([2]; PeptideX2 at 10 ug/ml, 3-hour timepoint): 27% | NF-κB activation via TLR4 (human TLR4): activation of NF-κB via TLR2 and TLR4 | TLR2-mediated response as level of the response to HKLM (human TLR2; PeptideX2 200 μg/mL vs HKLM at 10^8 cells/ml): 14% | NF-κB activation via TLR2 (human TLR2; PeptideX2 200 μg/mL, 16-20 hours): activation of NF-κB via TLR2 and TLR4
